From patent publication US5801149A, “Inhibition of signal transduction molecules” (Joslin D-abetes Center, Inc., priority 1995, dated 1998)
pKi: −log10 of the molar value. Non-standard residues stand in square brackets, D forms with d. Residues, ends and D or L forms follow the SMILES beside them. dPmp = N[C@H](Cc1ccc(CP(=O)(O)O)cc1)C(=O)O; pY = N[C@@H](Cc1ccc(OP(=O)(O)O)cc1)C(=O)O

Biological target: T1, Rat PTPase 1B (Rattus norvegicus, UniProt P20417)
T1 construct: cloning the full-length cDNA into the bacterial expression vector, PKK233-2; made in house; host or cells: bacteria (vector PKK233-2)
T1 sequence (P20417 1-432): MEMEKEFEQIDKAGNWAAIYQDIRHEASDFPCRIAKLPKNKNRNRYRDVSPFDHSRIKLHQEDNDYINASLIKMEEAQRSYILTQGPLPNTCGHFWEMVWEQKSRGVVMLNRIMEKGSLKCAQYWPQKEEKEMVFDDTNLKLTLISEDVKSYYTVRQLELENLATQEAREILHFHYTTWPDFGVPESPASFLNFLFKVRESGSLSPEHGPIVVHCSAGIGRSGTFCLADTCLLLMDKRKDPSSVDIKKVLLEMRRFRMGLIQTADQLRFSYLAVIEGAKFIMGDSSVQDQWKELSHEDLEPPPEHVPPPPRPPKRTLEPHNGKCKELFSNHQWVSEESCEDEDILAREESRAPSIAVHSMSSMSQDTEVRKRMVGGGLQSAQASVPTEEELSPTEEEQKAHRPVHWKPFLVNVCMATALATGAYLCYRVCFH
Assay: PTPase 1B peptide dephosphorylation (Km) and inhibition (Ki)
Assay type: biochemical
Conditions: for pKi: Pmp and Pmp-peptides as inhibitors; for Km: apparent Km, phosphotyrosine and pY-peptides as substrates
Protocol: The phosphopeptides were used as substrates of PTPase 1B, a single catalytic domain PTPase with a […] tissue distribution (Hunter et al., 1989, cell 58:1013). Rat PTPase 1B (Guan et al., 1990, Proc. Natl., Acad. Sci. USA 87:1501) was obtained by PCR and cloning the full-length cDNA into the bacterial expression vector, PKK233-2.
Sequence specificity for peptide dephosphorylation was observed, with apparent Km values ranging from <2 μM for the phospho-middle t sequence to >2 mM for pTyr itself (Table 3).
Several phosphono peptides were tested for the ability to inhibit PTPase 1B activity and KI values determined by methods known to those skilled in the art.

For `CC[C@H](C)[C@H](NC(=O)[C@H](CC(=O)O)NC(=O)[C@@H](N)CCCNC(=N)N)C(=O)N[C@H](Cc1ccc(CP(=O)(O)O)cc1)C(=O)N[C@@H](CCC(=O)O)C(=O)N[C@H](C(=O)N[C@@H](CC(=O)O)C(=O)N[C@@H](Cc1ccc(O)cc1)C(=O)N[C@@H](Cc1ccc(O)cc1)C(=O)N[C@@H](CCCNC(=N)N)C(=O)N[C@@H](CCCCN)C(=O)O)[C@@H](C)O` [IR1155-1165(d-Pmp1158), RDI[D-Pmp]ETDYYRK] (H-RDI[dPmp]ETDYYRK-OH; N-terminus assumed), the pKi was 4.52.
Work on `CC[C@H](C)[C@H](NC(=O)[C@H](CC(=O)O)NC(=O)[C@@H](N)CCCNC(=N)N)C(=O)N[C@@H](Cc1ccc(OP(=O)(O)O)cc1)C(=O)N[C@@H](CCC(=O)O)C(=O)N[C@H](C(=O)N[C@@H](CC(=O)O)C(=O)N[C@@H](Cc1ccc(O)cc1)C(=O)N[C@@H](Cc1ccc(O)cc1)C(=O)N[C@@H](CCCNC(=N)N)C(=O)N[C@@H](CCCCN)C(=O)O)[C@@H](C)O` [1R1155-1165(pY1158), RDIpYETDYYRK] (H-RDI[pY]ETDYYRK-OH) yielded a Km of 30 µM.
`CC[C@H](C)[C@H](NC(=O)[C@H](CC(=O)O)NC(=O)[C@@H](N)CCCNC(=N)N)C(=O)N[C@@H](Cc1ccc(O)cc1)C(=O)N[C@@H](CCC(=O)O)C(=O)N[C@H](C(=O)N[C@@H](CC(=O)O)C(=O)N[C@@H](Cc1ccc(OP(=O)(O)O)cc1)C(=O)N[C@@H](Cc1ccc(O)cc1)C(=O)N[C@@H](CCCNC(=N)N)C(=O)N[C@@H](CCCCN)C(=O)O)[C@@H](C)O` [IR1155-1165(pY1162), RDIYETDpYYRK] (H-RDIYETD[pY]YRK-OH) gave a Km of 40 µM.
`CSCC[C@H](NC(=O)[C@@H]1CCCN1C(=O)[C@H](CCSC)NC(=O)[C@H](Cc1ccc(OP(=O)(O)O)cc1)NC(=O)CNC(=O)[C@H](CC(=O)O)NC(=O)[C@H](CC(=O)O)NC(=O)[C@@H](N)[C@@H](C)O)C(=O)N[C@@H](CO)C(=O)N1CCC[C@H]1C(=O)NCC(=O)N[C@H](C(=O)O)C(C)C` [IRS-1(pY608), TDDGpYMPMSPGV] (H-TDDG[pY]MPMSPGV-OH) gave a Km of 30 µM.
`CC[C@H](C)[C@H](NC(=O)[C@H](CC(=O)O)NC(=O)[C@@H](N)CCCNC(=N)N)C(=O)N[C@@H](Cc1ccc(O)cc1)C(=O)N[C@@H](CCC(=O)O)C(=O)N[C@H](C(=O)N[C@@H](CC(=O)O)C(=O)N[C@@H](Cc1ccc(O)cc1)C(=O)N[C@@H](Cc1ccc(OP(=O)(O)O)cc1)C(=O)N[C@@H](CCCNC(=N)N)C(=O)N[C@@H](CCCCN)C(=O)O)[C@@H](C)O` [IR1155-1165(pY1163), RDIYETDYpYRK] (H-RDIYETDY[pY]RK-OH) gave a Km of 30 µM.
Work on `CC[C@H](C)[C@H](NC(=O)[C@H](CO)NC(=O)[C@H](CCC(=O)O)NC(=O)[C@H](CC(=O)O)NC(=O)[C@@H](N)CCCCN)C(=O)N[C@@H](CC(=O)O)C(=O)N[C@@H](Cc1ccc(OP(=O)(O)O)cc1)C(=O)N[C@H](C(=O)N1CCC[C@H]1C(=O)N[C@@H](CCSC)C(=O)N[C@@H](CC(C)C)C(=O)N[C@@H](CC(=O)O)C(=O)N[C@@H](CCSC)C(=O)N[C@@H](CCCCN)C(=O)NCC(=O)N[C@@H](CC(=O)O)C(=O)O)C(C)C` [mPDGF-Rβ(pY719), KDESIDpYVPMLDMKGD] (H-KDESID[pY]VPMLDMKGD-OH) yielded a Km of 8 µM.
`CSCC[C@H](NC(=O)[C@@H]1CCCN1C(=O)[C@H](CCSC)NC(=O)[C@H](Cc1ccc(OP(=O)(O)O)cc1)NC(=O)[C@H](CC(=O)O)NC(=O)CNC(=O)[C@H](CC(N)=O)NC(=O)CN)C(=O)N[C@@H](CO)C(=O)N1CCC[C@H]1C(=O)N[C@@H](CCCCN)C(=O)N[C@@H](CO)C(=O)O` [IRS-1(pY628), GNGDpYMPMSPKS] (H-GNGD[pY]MPMSPKS-OH) gave a Km of 100 µM.
Work on `C[C@@H](O)[C@H](N)C(=O)N[C@@H](CCC(=O)O)C(=O)N1CCC[C@H]1C(=O)N[C@@H](CCC(=O)O)C(=O)N[C@@H](Cc1ccc(OP(=O)(O)O)cc1)C(=O)N[C@@H](CCC(N)=O)C(=O)N1CCC[C@H]1C(=O)NCC(=O)N[C@@H](CCC(=O)O)C(=O)O` [pp60^c-src (pYS27), TEPEpYQPGE] (H-TEPE[pY]QPGE-OH) yielded a Km of 8 µM.
“RDIPmpETDPmpPmpRK [IR1155-1165(D,L-Pmp3)]” showed a pKi of over 5.70.
